Patent US7910612B2, “4-oxy-N-[1,3,4]-thiadiazol-2-yl-benzene sulfonamides, pharmaceutical compositions and methods for their therapeutic use” (Sanofi-Aventis, priority 2005, dated 2011)

Molecular target: T1, human PPARdelta (Homo sapiens, UniProt Q03181)
T1 construct: amino acids S139-Y441; expressed in transfected cells; host or cells: HEK (human embryo kidney) cells, stably transfected, pcDNA3 vector
T1 sequence (Q03181 139-441): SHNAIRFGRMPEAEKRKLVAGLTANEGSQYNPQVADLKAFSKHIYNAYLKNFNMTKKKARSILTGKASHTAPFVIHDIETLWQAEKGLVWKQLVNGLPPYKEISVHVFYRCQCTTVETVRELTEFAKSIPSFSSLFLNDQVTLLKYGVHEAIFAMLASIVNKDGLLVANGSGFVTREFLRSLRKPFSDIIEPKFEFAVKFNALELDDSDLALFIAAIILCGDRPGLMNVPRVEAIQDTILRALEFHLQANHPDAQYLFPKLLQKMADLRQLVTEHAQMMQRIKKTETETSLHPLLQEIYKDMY
Assay: cellular PPARdelta assay (stably transfected HEK luciferase reporter cell line)
Type: cell-based
Procedure: The potency of substances which bind to human PPARdelta and activate it in an agonistic manner is analyzed using a stably transfected HEK cell line (HEK=human embryo kidney) which is referred to here as PPARdelta reporter cell line. In analogy to the assay described for PPARalpha, the PPARdelta reporter cell line also contains two genetic elements, a luciferase reporter element (pdeltaM-GAL4-Luc-Zeo) and a PPARdelta fusion protein (GR-GAL4-humanPPARdelta-LBD) which mediates expression of the luciferase reporter element depending on a PPARdelta ligand. The stably and constitutively expressed fusion protein GR-GAL4-humanPPARdelta-LBD binds in the cell nucleus of the PPARdelta reporter cell line via the GAL4 protein portion to the GAL4 DNA binding motifs 5′-upstream of the luciferase reporter element which is stably integrated in the genome of the cell line. There is only little expression of the luciferase reporter gene in the absence of a PPARdelta ligand if fatty acid-depleted fetal calf serum (cs-FCS) is used in the assay. PPARdelta ligands bind and activate the PPARdelta fusion protein and thereby stimulate expression of the luciferase reporter gene. The luciferase which is formed can be detected by means of chemiluminescence via an appropriate substrate.
The production of the stable PPARdelta reporter cell line is based on a stable HEK-cell clone which was stably transfected with a luciferase reporter element. This step was already described above in the section “construction of the PPARalpha reporter cell line”. In a second step, the PPARdelta fusion protein (GR-GAL4-humanPPARdelta-LBD was stably introduced into this cell clone. For this purpose, the cDNA coding for the N-terminal 76 amino acids of the glucocorticoid receptor (Accession #P04150) was linked to the cDNA section coding for amino acids 1-147 of the yeast transcription factor GAL4 (Accession #P04386). The cDNA of the ligand-binding domain of the human PPARdelta receptor (amino acids S139-Y441; Accession #L07592) was cloned in at the 3′-end of this GR-GAL4 construct. The fusion construct prepared in this way (GR-GAL4-humanPPARdelta-LBD) was recloned into the plasmid pcDNA3 (Invitrogen) in order to enable constitutive expression by the cytomegalovirus promoter. This plasmid was linearized with a restriction endonuclease and stably transfected into the previously described cell clone containing the luciferase reporter element. The resulting PPARdelta reporter cell line which contains a luciferase reporter element and constitutively expresses the PPARdelta fusion protein (GR-GAL4-human PPARdelta-LBD) was isolated by selection with zeocin (0.5 mg/ml) and G418 (0.5 mg/ml).
The activity of PPARdelta agonists is determined in a 3-day assay in exact analogy to the procedure already described for the PPARalpha reporter cell line except that the PPARdelta reporter cell line and a specific PPARdelta agonist was used as a standard to control test efficacy. […] Compounds of the invention of the formula I activate the PPARdelta receptor.

Row | SMILES | EC50 [nM]
1 | COc1ccc(-c2nc(COc3ccc(S(=O)(=O)Nc4nnc(C(C)C)s4)cc3)no2)cc1 [Example 9, N-(5-Isopropyl-[1,3,4]thiadiazol-2-yl)-4-[5-(4-methoxy-phenyl)-[1,2,4]oxadiazol-3-ylmethoxy]-benzenesulfonamide] | 260
2 | COc1ccc2c(COc3ccc(S(=O)(=O)Nc4nnc(C(C)C)s4)cc3)coc2c1 [Example 3, N-(5-Isopropyl-[1,3,4]thiadiazol-2-yl)-4-(6-methoxy-benzofuran-3-ylmethoxy)-benzenesulfonamide] | 480
3 | COc1ccc(-c2nc(COc3ccc(S(=O)(=O)Nc4nnc(C(C)C)s4)cc3)co2)cc1 [Example 13, N-(5-Isopropyl-[1,3,4]thiadiazol-2-yl)-4-[2-(4-methoxy-phenyl)-oxazol-4-ylmethoxy]-benzenesulfonamide] | 650

More lines, now with the values ahead:

Row | EC50 [nM] | SMILES
4 | 370 | Cc1nc(-c2ccc(C(F)(F)F)cc2)sc1COc1ccc(S(=O)(=O)Nc2nnc(C(C)C)s2)cc1 [Example 1, N-(5-Isopropyl-[1,3,4]thiadiazol-2-yl)-4-[4-methyl-2-(4-trifluoromethyl-phenyl)-thiazol-5-ylmethoxy]-benzenesulfonamide]
5 | 670 | CCc1oc(-c2cccc(C(F)(F)F)c2)nc1COc1ccc(S(=O)(=O)Nc2nnc(C(C)C)s2)cc1 [Example 14, 4-[5-Ethyl-2-(3-trifluoromethyl-phenyl)-oxazol-4-ylmethoxy]-N-(5-isopropyl-[1,3,4]thiadiazol-2-yl)-benzenesulfonamide]
6 | 1130 | CC(C)c1nnc(NS(=O)(=O)c2ccc(OCc3ccc(Oc4ccc(C(F)(F)F)cc4)cc3)cc2)s1 [Example 4, N-(5-Isopropyl-[1,3,4]thiadiazol-2-yl)-4-[4-(4-trifluoromethyl-phenoxy)-benzyloxy]-benzenesulfonamide]
